{"source": "patent US11813277B2", "about": "“Methods and agents for modulating inflammation” (The Regents of the University of California, priority 2018, dated 2023)", "key": {"[1]": {"tested_on": "LCFA oxidation in BMDMs", "assay": "9,10-3H-palmitate oxidation (3H2O release) in BMDMs", "assay_type": "cell-based, mouse", "details": "3 μM etomoxir", "description": "BMDMs at day 6 of differentiation were seeded at 3×10^5 cells/well in 12 well plates in BMDM media. The next day, cells were treated in DMEM containing 25 mM glucose supplemented with 5% FBS, 2 mM L-Glutamax, 100 units/mL, 100 μg/mL penicillin/streptomycin, 1 mM of sodium pyruvate, 1 mM carnitine, and 5% v/v conditioned media containing macrophage colony stimulating factor (M-CSF) under one of 5 conditions: control, 20 ng/mL of IL-4±3 μM or 200 μM of etomoxir, or 200 nM rotenone, or 200 nM antimycin A for 24 hr. Fatty acid oxidation was measured 24 hours later as previously described (Rognstad, R. (1991) Estimation of peroxisomal and mitochondrial fatty acid oxidation in rat hepatocytes using tritiated substrates. Biochem J 279:147-150, 1991; Cha, B. S., Ciaraldi, T. P., Park, K. S., Carter, L., Mudaliar, S. R., and Henry R R. (2005) Impaired fatty acid metabolism in type 2 diabetic skeletal muscle cells is reversed by PPARgamma agonists. Am J Physiol Endocrinol Metab. 289, E151-9) following a fluid change to DMEM with components as described above except 10 mM glucose and 0.2 μCi (final concentration of 5 μM) BSA-conjugated [9,10-3H]palmitic acid. No additional IL-4 was added at the time of this fluid change, but etomoxir, rotenone and antimycin A were added, and the plates were placed in a […] incubator at 37° C. for 3 hr. After incubation, a 100 μL aliquot of the culture medium was passed over an ion-exchange resin, and the column was washed twice with 0.75 ml of water. Free fatty acids were retained by the resin, whereas the tritium hydrolyzed from radiolabeled palmitate catabolism was released as labeled water, which passes freely through the resin, and is subsequently counted for radioactivity. All data are corrected for protein content in each well. There were 3 technical replicates for each condition, and 4 biological replicates arising from 4 separate animals."}, "[2]": {"tested_on": "BMDMs", "assay": "ADP- or FCCP-stimulated respiration in permeabilized WT, Cpt1a-/- and Cpt2-/- BMDMs", "assay_type": "cell-based, mouse", "details": "200 μM etomoxir; independent of CPT-1 activity; also stated for Treg cells"}, "[3]": {"tested_on": "permeabilized HepG2 or A549 cells", "assay": "ADP- vs FCCP-stimulated respiration in permeabilized cells, etomoxir added directly", "assay_type": "cell-based", "details": "high concentrations of etomoxir"}, "[4]": {"tested_on": "BMDMs", "assay": "Intracellular free coenzyme A levels in BMDMs", "assay_type": "cell-based, mouse", "details": "200 μM etomoxir, IL-4, 20 hr", "description": "On Day 6 of differentiation, BMDMs were seeded at 1.2×10^6 cells/well in 6-well plates. 24 hr later, BMDMs were mock-treated or co-treated with 20 ng/mL IL-4±200 μM etomoxir±500 μM CoA in DMEM supplemented with 5% FBS, 2 mM L-glutamine, 100 units/mL, […] penicillin/streptomycin, 500 μM of sodium pyruvate and 5% v/v conditioned media containing macrophage colony stimulating factor (M-CSF) for 20 hr. Prior to sample collections, cells were washed with 600 μL of 0.9% (w/v) NaCl twice. Three wells per replicate per treatment were combined in 2 mL centrifuge tubes and centrifuged at 500 g for 5 mins at 4° C. The supernatant was removed, and the cell pellet was re-suspended in 75 μL of ice-cold 0.7% (v/v) perchloric acid for 5 min. Samples were then centrifuged at 10,000 g for 7 mins at 4° C. and the resulting supernatant was adjusted to pH 7 with 2M NaOH and 500 mM K2HPO4. The coenzyme A concentration was determined with Coenzyme A Assay Kit following manufacturer's instructions (Sigma MAK034) using 40 μL of sample supernatant. Coenzyme A levels were normalized to total cellular protein (BCA method)."}, "[5]": {"tested_on": "adenine nucleotide translocase (ANT)", "assay": "ATP hydrolysis in isolated mitochondria, intact or alamethicin-permeabilized", "assay_type": "biochemical, rat", "from_the_text": "ATP hydrolysis in isolated mitochondria (McQuaker, S. J., Quinlan, C. L., Caldwell, S. T., Brand, M. D., and Hartley, R. C. (2013). A prototypical small molecule modulator uncouples mitochondria in response to endogenous hydrogen peroxide production. Chembiochem. 14, 993-1000; Divakaruni, A. S., Andreyev, A. Y., Rogers, G. W., and Murphy, A. N. (2017a) In situ measurements of mitochondrial matrix enzyme activities using plasma and mitochondrial membrane permeabilization agents. Anal. Biochem. 17, 30385-8) was performed in MAS buffer, and stimulated by respiratory chain inhibition (1 μM rotenone and 2 μM antimycin A) followed by addition of excess ATP (25 mM) and uncoupler (1 μM FCCP). Hydrolysis was inhibited by injection of either oligomycin (3 ng/mg mitochondrial protein) or carboxyatractylo side (7.5 ng/mg mitochondrial protein). Rates of extracellular acidification (ECAR, in mpH/min) were converted to proton production rates (PPR, in pmol H+/min) by determining the buffer capacity with sequential injections of HCl and H2SO4 (Mookerjee, S. A., Goncalves, R. L., Gerencser, A. A., Nicholls, D. G., and Brand, M. D. (2015). The contributions of respiration and glycolysis to extracellular acid production. Biochim et Biophys Acta. 1847, 171-81). 10 μg/mL alamethicin was used to permeabilize the mitochondrial inner membrane (1 μg/mg mitochondrial protein)."}, "[6]": {"tested_on": "BMDMs", "assay": "Substrate-specific respirometry in permeabilized cells", "assay_type": "cell-based, mouse", "details": "3 μM etomoxir"}}}
{"compound": "CCOC(=O)[C@@]1(CCCCCCOc2ccc(Cl)cc2)CO1", "note": "[etomoxir]", "values": [{"measurement": "3H2O release from tritiated palmitate", "setting": "[1]", "value": "effectively suppress"}, {"measurement": "phosphorylating and uncoupled respiration", "setting": "[2]", "value": "pronounced off-target effect on phosphorylating respiration with a secondary effect at uncoupled respiration"}, {"measurement": "respiration driven by ADP versus FCCP", "setting": "[3]", "value": "greater inhibitory effect on respiration driven by ADP versus FCCP"}, {"measurement": "intracellular free CoA levels", "setting": "[4]", "value": "significantly dropped"}, {"measurement": "ATP hydrolysis", "setting": "[5]; alamethicin-permeabilized mitochondria", "value": "no effect"}, {"measurement": "ATP hydrolysis", "setting": "[5]; intact isolated mitochondria, etomoxir 100 μM, CAT 7.5 ng/mg, oligomycin 3 ng/mg", "value": "inhibited ATP hydrolysis"}, {"measurement": "palmitoyl CoA oxidation", "setting": "[6]", "value": "significant effect"}, {"measurement": "respiration driven by substrates which do not require CPT-1", "setting": "[6]; glutamate/malate, pyruvate/malate, palmitoylcarnitine/malate, succinate/rotenone", "value": "no effect"}]}
